Assay results reported in patent publication US4684645A, “Benzofused lactams as cholecystokinin antagonists” (Merck & Co., Inc., priority 1985, dated 1987).

What was measured:
guinea pig gall bladder = test: CCK induced contraction, isolated guinea pig gall bladder; design: species or system guinea pig (male Hartley); conditions: at 26 μM
Experimental: Male Hartley guinea pigs (400-600 g) were sacrificed by decapitation. The whole gall bladder was dissected free from adjacent tissues and cut into two equal halves. The gall bladder strips were suspended along the axis of bile duct in 5 ml organ bath under 1 g tension. The organ bath contained a Kreb's bicarbonate solution (NaCl 118 mM, KCl 4.75 mM, CaCl 2.54 mM, KH2 PO4 1.19 mM, Mg SO4 1.2 mM, NaHCO3 25 mM and dextrose 11 mM) maintained at 32° C. and bubbled with 95% O2 and 5% CO2. Isometric contractions were recorded using Statham (60 g; 0.12 mm) strain gauges and a Hewlett-Packard (77588) recorder. The tissues were washed every 10 minutes for 1 hr to obtain equilibrium prior to the beginning of the study. CCK-8 was added cumulatively to the baths and EC50 's determined using egression analysis. After washout (every 10 minutes for 1 hr), the compound of Formula I was added at least 5 minutes before the addition of CCK-8 and the EC50 of CCK-8 in the presence of the compound of Formula I similarly determined.

CCK receptor = test: 125I-CCK-33 receptor binding (pancreas or brain preparation not given); conditions: concentration dependent inhibition; tissue (rat pancreas or guinea pig brain) not stated; read-out: IC50, inhibition of specific 125I-CCK-33 binding
Experimental: The biological activity of the compounds of Formula I have been evaluated using an ^125 I-CCK receptor binding assay and in vitro isolated tissue preparations.
(§1) CCK-33 was radiolabeled with ^125 I-Bolton Hunter reagent (2000 Ci/mmole) as described by Sankara et al. (J. Biol. Chem. 254: 9349-9351, 1979). Receptor binding was performed according to Innis and Snyder (Proc. Natl. Acad. Sci. 77: 6917-6921, 1980) with the minor modification of adding the additional protease inhibitors, phenylmethane sulfonyl fluoride and o-phenanthroline. The latter two compounds have no effect on the ^125 I-CCK receptor binding assay.
Male Sprague-Dawley rats (200-350 g) were sacrificed by decapitation. The whole pancreas was dissected free of fat tissue and was homogenized in 20 volumes of ice-cold 50 mM, Tris HCl (pH 7.7 at 25° C.) with a Brinkmann Polytron PT 10. The homogenates were centrifuged at 48,000 g for 10 min. Pellets were resuspended in Tris Buffer, centrifuged as above and resuspended n 200 volumes of binding assay buffer (50 mM Tris HCl, pH 7.7 at 25° C., 5 mM dithiothriethel, 0.1 mM bacitracin, 1.2 mM phenylmethane sulfonyl fluoride and 0.5 mM o-phenanthroline). For the binding assay, 25 μl of buffer (for total binding) or unlabeled CCK-8 sulfate to give a final concentration of lμM (for nonspecific binding) or the compounds of Formula I (for determination inhibition of ^125 I-CCK binding) and 25 μl of ^125 I-CCK-33 (30,000-40,000 cpm) were added to 450 μl of the membrane suspensions in microfuge tubes. All assays were run in duplicate or triplicate. […] The supernatant was aspirated and discarded, pellets were counted with a Beckman gamma 5000. […]
Male Hartley guinea pigs (300-500 g) were sacrificed by decapitation and the brains were removed and placed in ice-cold 50 mM, Tris HCl plus 7.58 g/l Tritma-7.4 (pH 7.4 at 25° C.) Cerebral cortex was dissected and used as a receptor source. […] The supernatant was aspirated and discarded, pellets were counted with a Beckman gamma 5000.

guinea pig ileum = test: CCK induced contraction, isolated longitudinal muscle of guinea pig ileum; design: species or system guinea pig (male Hartley); conditions: at 4.2 μM
Experimental: Longitudinal muscle strips with attached nerve plexus were prepared as described previously (Brit J. Pharmac. 23: 356-363, 1964; J. Physiol. 194: 13-33, 1969). Male Hartley guinea pigs were decapitated and the ileum was removed (10 cm of the terminal ileum was discarded and the adjacent 20 cm piece was used). A piece (10 cm) of the ileum was stretched on a glass pipette. Using a cotton applicator to stroke tangently away from the mesentery attachment at one end, the longitudinal muscle was separated from the underlying circular muscle. The longitudinal muscle was then tied to a thread and by gently pulling, stripped away from the entire muscle. A piece of approximately 2 cm was suspended in 5 ml organ bath containing Krebs solution and bubbled with 95% O2 and 5% CO2 at 37° C. under 0.5 g tension. CCK-8 was added cumulatively to the baths and EC50 values in the presence and absence of compounds of Formula I determined as described in the gall bladder protocol (above).

CCK receptor (pancreas) = test: CCK Receptor Binding (Pancreas), 125I-CCK-33; design: species or system rat (male Sprague-Dawley); conditions: added as protease inhibitors; binding assay buffer
Experimental: as §1
Male Sprague-Dawley rats (200-350 g) were sacrificed by decapitation. The whole pancreas was dissected free of fat tissue and was homogenized in 20 volumes of ice-cold 50 mM, Tris HCl (pH 7.7 at 25° C.) with a Brinkmann Polytron PT 10. The homogenates were centrifuged at 48,000 g for 10 min. Pellets were resuspended in Tris Buffer, centrifuged as above and resuspended n 200 volumes of binding assay buffer (50 mM Tris HCl, pH 7.7 at 25° C., 5 mM dithiothriethel, 0.1 mM bacitracin, 1.2 mM phenylmethane sulfonyl fluoride and 0.5 mM o-phenanthroline). […] The supernatant was aspirated and discarded, pellets were counted with a Beckman gamma 5000.

Compound	IC50 (CCK receptor)	effect on the 125I-CCK receptor binding assay (CCK receptor (pancreas))	other results
CCOC(=O)CN1C(=O)C(NC(CCc2ccccc2)C(=O)OCC)CCc2ccccc21 (racemic) [1-Carboethoxymethyl-3-(1-carboethoxy-3-phenyl-1-propyl)-amino homodihydrocarbostyril]			effect on maximal responses to CCK (guinea pig gall bladder): without reducing maximal responses; shift of CCK dose response (guinea pig gall bladder): about 10 times
COC(=O)CN1C(=O)C(NC(CCc2ccccc2)C(=O)OC)CCc2ccccc21 (racemic) [1-Carbomethoxymethyl-3-(1-carbomethoxy-3-phenyl-1-propyl)aminohomodihydrocarbostyril]	10000 nM		
CCOC(=O)C(CCc1c[nH]c2ccccc12)NC1CCc2ccccc2N(CC(=O)OC(C)(C)C)C1=O (stereo not drawn) [1-t-Butoxycarbonylmethyl-3-(1-carboethoxy-3-(3)indolyl-1-propyl)amino homodihydrocarbostyril]	400 nM		effect on maximal responses to CCK (guinea pig ileum): without affecting maximal responses; shift of CCK dose response to the right (guinea pig ileum): approximately 2.6 fold
CCOC(=O)C(CCc1ccccc1)NC1CCc2ccccc2N(CC(=O)OC(C)(C)C)C1=O (stereo not drawn) [1-t-Butoxycarbonylmethyl-3-(1-carboethoxy-3-phenyl-1-propyl]-amino homodihydrocarbostyril]	2400 nM		
c1cnc2c(c1)ccc1cccnc12 [o-phenanthroline]		no effect	
O=S(=O)(F)Cc1ccccc1 [phenylmethane sulfonyl fluoride]		no effect	
